The values that follow come from ChEMBL document CHEMBL3832761, “MMV Pathogen Box Bioactivity Data” (2017).

For orientation: Inhibition means how much of the control response was suppressed. A low value points to little suppression. The pIC50 is the IC50 on a negative log10 scale, so that one unit is a factor of ten. A high value points to a small IC50. For orientation: inhibition means the relative decrease from the control value, in per cent. Low values mean a weak effect, high ones a strong effect. For orientation: CC50 means the concentration at which the toxic effect on the cells reaches its halfway point. A high value points to better tolerance by the cells. As usually defined, the MIC is the lowest concentration that inhibits growth of the organism. Usually MIC90 stands for the lowest concentration that inhibits either 90% of growth or 90% of the strains tested, depending on the study. High values mean lower susceptibility, low ones higher susceptibility.

Structures are written as SMILES. pIC50: −log10 of the molar value. In brackets after ≈: the same amount, converted by molar mass. Bounds are passed on as bounds.

Assay [1] deals with Plasmodium falciparum. Description: Antimalarial activity: Gametocytes Plasmodium falciparum NF54 Gametocytes Stage V: inhibition at 10 uM (%). It is filed as functional.
Assay [2] concerns Plasmodium berghei. Description: Antimalarial activity: Liver Stage Plasmodium berghei sporozoite Luciferase assay: inhibition at 10 uM (%). It is filed as functional.
For assay [3], the system named is Plasmodium falciparum. Description: Antimalarial activity: Asexual Blood Stage Plasmodium falciparum 3D7 IC50 (uM). In kind it is functional, organism-based.
In assay [4] the test system is Plasmodium falciparum. Description: Antimalarial activity: Asexual Blood Stage Plasmodium falciparum Dd2 IC50 (uM). In kind it is functional, organism-based.
For assay [5], the system named is HepG2. Description: HepG2 inhibition at 10 uM (%) Cytotoxicity. It is filed as functional. The conditions noted are these: Homo sapiens.
Assay [6] has as its system Plasmodium falciparum. The assay can be described thus: Antimalarial activity: Gametocytes Plasmodium falciparum NF54 Gametocytes Stage V IC50 (uM). It is filed as functional, organism-based.
Assay [7] relates to HepG2. The assay can be described thus: Cytotoxicity data HepG2 CC20 (uM). It is filed as functional.
In assay [8] the test system is Plasmodium falciparum. The assay can be described thus: Antimalarial activity: Asexual Blood Stage Plasmodium falciparum W2 IC50 (uM). In kind it is functional, organism-based.
In assay [9] the test system is HepG2. Description: HepG2 CC50 (uM) Cytotoxicity. In kind it is functional. As to conditions: Homo sapiens.
The subject of assay [10] is Plasmodium berghei. The assay can be described thus: Antimalarial activity: Liver Stage Plasmodium berghei sporozoite Luciferase assay IC50 (uM). It is filed as functional, organism-based.
Assay [11] relates to Mycobacterium tuberculosis. Description: AntiMycobacterium tuberculosis activity 2-week Alamar Blue 7H9/ADC/Tw MIC (uM). It is filed as functional. The conditions noted are these: 336 h. A general note: Resazurin is reduced to fluorescent resorufin, in cell work by metabolically active cells.
Assay [12] relates to Mycobacterium tuberculosis. Description: (§1) AntiMycobacterium tuberculosis activity day 10 in 7H9/2.5mM butyrate/pH6/0.1mM nitrite MIC90 (uM). In kind it is functional. As to conditions: 240 h.
Assay [13] relates to Mycobacterium tuberculosis. The assay can be described thus: AntiMycobacterium tuberculosis activity 1-week 7H9/glucose/BSA/Tx MIC (uM). It is filed as functional. The conditions noted are these: 168 h.
For assay [14], the system named is Mycobacterium tuberculosis. The assay can be described thus: AntiMycobacterium tuberculosis activity day 21 in 7H9/2.5mM butyrate/pH6/0.1mM nitrite MIC90 (uM). In kind it is functional. As to conditions: 504 h.
The subject of assay [15] is Mycobacterium tuberculosis. The assay can be described thus: AntiMycobacterium tuberculosis activity 2-week 7H9/glucose/BSA/Tx MIC (uM). In kind it is functional. The conditions noted are these: 336 h.
The subject of assay [16] is Mycobacterium tuberculosis. Described as §1. In kind it is functional. The conditions noted are these: 240 h. The source holds these as a separate data set.
The test system of assay [17] is HepG2. Description: HepG2 glucose CC50 (uM) Cytotoxicity. In kind it is functional.
Assay [18] concerns Mycobacterium tuberculosis. The assay can be described thus: AntiMycobacterium tuberculosis activity 2-week 7H9/ADC/Tw MIC (uM). As to conditions: 336 h. In kind it is functional.
In assay [19] the test system is Mycobacterium tuberculosis. The assay can be described thus: AntiMycobacterium tuberculosis activity 1-week 7H9/cholesterol/BSA/Tx MIC (uM). In kind it is functional. As to conditions: 168 h.
The test system of assay [20] is Mycobacterium tuberculosis. The assay can be described thus: AntiMycobacterium tuberculosis activity 2-week Alamar Blue 7H9/cholesterol/BSA/Tx MIC (uM). It is filed as functional. As to conditions: 336 h.
In assay [21] the test system is Mycobacterium tuberculosis. The assay can be described thus: AntiMycobacterium tuberculosis activity Non-Replicating form: Average MIC90 (uM). In kind it is functional.
For assay [22], the system named is Mycobacterium tuberculosis. Description: AntiMycobacterium tuberculosis activity 2-week 7H9/DPPC/cholesterol/BSA/Tx MIC (uM). As to conditions: 336 h. In kind it is functional.
The subject of assay [23] is Mycobacterium tuberculosis. The assay can be described thus: AntiMycobacterium tuberculosis activity 1-week GAST/Fe MIC (uM). In kind it is functional. The conditions noted are these: 168 h.
The test system of assay [24] is Mycobacterium tuberculosis. Description: AntiMycobacterium tuberculosis activity 1-week 7H9/DPPC/cholesterol/BSA/Tx MIC (uM). It is filed as functional. The conditions noted are these: 168 h.
The subject of assay [25] is Mycobacterium tuberculosis. Description: AntiMycobacterium tuberculosis activity Replicating form: Average MIC90 (uM). It is filed as functional.
Assay [26] concerns Mycobacterium tuberculosis. Description: AntiMycobacterium tuberculosis activity 1-week 7H9/ADC/Tw MIC (uM). It is filed as functional. The conditions noted are these: 168 h.
For assay [27], the system named is Mycobacterium tuberculosis. Description: AntiMycobacterium tuberculosis activity day 21 MIC99 in 7H9/2.5mM butyrate/pH6/0.1mM nitrite MIC99 (uM). As to conditions: 504 h. It is filed as functional.
The subject of assay [28] is Mycobacterium tuberculosis. The assay can be described thus: AntiMycobacterium tuberculosis activity 2-week GAST/Fe MIC (uM). In kind it is functional. The conditions noted are these: 336 h.
Assay [29] deals with HepG2. Description: HepG2 galactose CC50 (uM) Cytotoxicity. In kind it is functional.

Take `Nc1nccc2ccc(-c3ccc4nccn4c3)cc12`: the Inhibition was 95% in the assay on Plasmodium falciparum [1] and 56% in the assay with Plasmodium berghei [2]. In addition, the negative-log IC50 (pIC50) with Plasmodium falciparum [3] was 6.80; in the assay on Plasmodium falciparum [4] it was 6.59; with Plasmodium falciparum [6], 6.40; with Plasmodium falciparum [8], 6.43. In addition, 10 µM produced 50% inhibition in the assay on HepG2 [5]. In the assay with HepG2 [7], this compound returned a CC20 of 5410 nM.
On to `CN(C(=O)c1cc2c(-c3cncnc3)cccc2[nH]1)c1ccccc1`, for which the Inhibition with Plasmodium falciparum [1] was determined as 81%; in the assay on Plasmodium berghei [2] it was 100%. Besides, the pIC50 in the assay on Plasmodium falciparum [3] was 6.14; in the assay with Plasmodium falciparum [4], 6.17; in the assay on Plasmodium falciparum [6], 6.24; in the assay on Plasmodium falciparum [8], 6.10; in the assay with Plasmodium berghei [10], 5.99. The compound further gave a cytotoxic concentration (CC50) in the assay on HepG2 [9] of more than 10000 nM. For the same compound, the CC20 with HepG2 [7] came to 6040 nM.
On to `O=C(Nc1ccc(N2CCNCC2)cc1)c1ccn2ncc(-c3cccc(Cl)c3)c2n1`, for which the Inhibition with Plasmodium falciparum [1] came to 97%; with Plasmodium berghei [2] it was 96%. In addition, the negative logarithm of the IC50 (pIC50) in the assay on Plasmodium falciparum [3] was 6.11; with Plasmodium falciparum [4], 5.92; with Plasmodium falciparum [6] it was 6.21; with Plasmodium falciparum [8] it was 5.85; in the assay with Plasmodium berghei [10] it was less than 5.00. For the same compound, the CC50 with HepG2 [9] is more than 10000 nM. The compound also came in with a CC20 in the assay on HepG2 [7] of 760 nM.
For `O=C(Nc1ccccc1)c1ccc(-c2cc3ccncc3cc2OC2CCNCC2)s1`, the Inhibition came out at 96% with Plasmodium falciparum [1] and 100% in the assay on Plasmodium berghei [2]. The pIC50 with Plasmodium falciparum [3] was 6.24; in the assay on Plasmodium falciparum [4], 5.91; in the assay on Plasmodium falciparum [6] it was 5.64; with Plasmodium falciparum [8], 5.81; in the assay with Plasmodium berghei [10], 5.13. Moreover, in the assay on HepG2 [9], the CC50 is more than 7500 nM. For the same compound, the CC20 with HepG2 [7] was found to be 3650 nM.
For `NS(=O)(=O)c1cccc(-c2ccc3ncc(N4CCOCC4)nc3c2)c1`, the Inhibition with Plasmodium falciparum [1] was 92%; with Plasmodium berghei [2], 100%. Moreover, the pIC50 in the assay with Plasmodium falciparum [3] was 5.82; in the assay with Plasmodium falciparum [4], 5.78; in the assay on Plasmodium falciparum [6], 5.88; in the assay on Plasmodium falciparum [8] it was 5.73; in the assay with Plasmodium berghei [10], 5.74. The CC50 in the assay on HepG2 [9] was more than 10000 nM. The compound further returned a CC20 with HepG2 [7] of 7610 nM.
As to `Cc1ccc(-c2nc(CN(Cc3ccccn3)C(C)C)cs2)o1`, the pIC50 is less than 5.70 in the assay on Plasmodium falciparum [3], less than 5.70 in the assay with Plasmodium falciparum [4] and 6.35 in the assay with Plasmodium falciparum [6]. The same compound had an inhibition at 10 µM with HepG2 [5] of 47%.
As to `c1ccc(-c2cc(N3CCCCC3)c3ccccc3n2)nc1`, the Inhibition amounted to 93% with Plasmodium falciparum [1] and 92% with Plasmodium berghei [2]. The pIC50 was less than 5.70 with Plasmodium falciparum [3], less than 5.70 in the assay with Plasmodium falciparum [4], 6.29 with Plasmodium falciparum [6] and 5.01 in the assay with Plasmodium berghei [10]. Moreover, the CC50 in the assay with HepG2 [9] was more than 10000 nM. In addition, the CC20 in the assay on HepG2 [7] is 22900 nM.
With `Cc1cc(C)nc(-n2nc(C)cc2Nc2ccccc2)n1`, the pIC50 in the assay with Plasmodium falciparum [3] is less than 5.70; in the assay with Plasmodium falciparum [6], 6.66. In the assay on HepG2 [5], this compound had an inhibition at 10 µM of 7%.
In the case of `CCOC(=O)c1c(NC(=O)c2c(F)c(F)c(F)c(F)c2F)sc(C(N)=O)c1C`, the MIC worked out at 0.39 µM (≈ 0.165 µg/mL) in assay [11]; 0.1 µM (≈ 0.0422 µg/mL) in assay [13]; 0.39 µM (≈ 0.165 µg/mL) in [15]; 0.39 µM (≈ 0.165 µg/mL) in [18]; 0.07 µM (≈ 0.0296 µg/mL) in [19]; 0.39 µM (≈ 0.165 µg/mL) in [20]. Moreover, the MIC in assay [22] was 0.3 µM (≈ 0.127 µg/mL); in assay [23] it was 0.07 µM (≈ 0.0296 µg/mL); in assay [24] it was 0.05 µM (≈ 0.0211 µg/mL); in assay [26] it was 0.1 µM (≈ 0.0422 µg/mL); in [27], more than 50 µM; in [28], 0.1 µM (≈ 0.0422 µg/mL). Moreover, the MIC90 in assay [12] was 0.78 µM (≈ 0.329 µg/mL); in assay [14] it was 6.25 µM (≈ 2.64 µg/mL); in assay [16] it was more than 50 µM; in assay [21] it was 0.23 µM (≈ 0.0971 µg/mL); in [25], less than 0.25 µM. Further, the CC50 is 23500 nM in the assay on HepG2 [17]; 31700 nM with HepG2 [17] (Homo sapiens, HepG2); 4200 nM with HepG2 [9]; more than 50000 nM in the assay on HepG2 [29]; 48800 nM with HepG2 [29] (Homo sapiens, HepG2).
Consider `Clc1ccc(CCNc2cc(-c3ccccc3)nc3ncnn23)cc1`, for which the minimum inhibitory concentration (MIC) in [11] was 6.25 µM (≈ 2.19 µg/mL); in [13] it was 50 µM (≈ 17.5 µg/mL); in assay [15], more than 50 µM; in assay [18] it was more than 50 µM; in assay [19], 3.13 µM (≈ 1.09 µg/mL); in [20], 3.13 µM (≈ 1.09 µg/mL). The MIC was more than 50 µM in [22]; 0.3 µM (≈ 0.105 µg/mL) in assay [23]; 4.7 µM (≈ 1.64 µg/mL) in [24]; 50 µM (≈ 17.5 µg/mL) in assay [26]; more than 50 µM in assay [27]; 1.2 µM (≈ 0.42 µg/mL) in assay [28]. Also, the MIC90 in [12] was 6.25 µM (≈ 2.19 µg/mL); in assay [14], 25 µM (≈ 8.75 µg/mL); in [16] it was more than 50 µM. Also, the CC50 in the assay with HepG2 [17] (Homo sapiens, HepG2) is more than 50000 nM; in the assay with HepG2 [29] (Homo sapiens, HepG2), more than 50000 nM.
